Assay results from US20230257372A1 (CHONG KUN DANG PHARMACEUTICAL CORP., priority 2020, published 2023).
Read-outs that look alike come from different tables or passages of the source.

How the values were obtained:
human recombinant HDAC6 = biological target: T1, human recombinant HDAC6 (Homo sapiens, UniProt Q9UBN7); assay: HDAC6 enzyme activity inhibition (HDAC Fluorimetric Drug Discovery Kit); format: biochemical
T1 construct: purchased Calbiochem Inc. 382180
T1 sequence (Q9UBN7 1-1215): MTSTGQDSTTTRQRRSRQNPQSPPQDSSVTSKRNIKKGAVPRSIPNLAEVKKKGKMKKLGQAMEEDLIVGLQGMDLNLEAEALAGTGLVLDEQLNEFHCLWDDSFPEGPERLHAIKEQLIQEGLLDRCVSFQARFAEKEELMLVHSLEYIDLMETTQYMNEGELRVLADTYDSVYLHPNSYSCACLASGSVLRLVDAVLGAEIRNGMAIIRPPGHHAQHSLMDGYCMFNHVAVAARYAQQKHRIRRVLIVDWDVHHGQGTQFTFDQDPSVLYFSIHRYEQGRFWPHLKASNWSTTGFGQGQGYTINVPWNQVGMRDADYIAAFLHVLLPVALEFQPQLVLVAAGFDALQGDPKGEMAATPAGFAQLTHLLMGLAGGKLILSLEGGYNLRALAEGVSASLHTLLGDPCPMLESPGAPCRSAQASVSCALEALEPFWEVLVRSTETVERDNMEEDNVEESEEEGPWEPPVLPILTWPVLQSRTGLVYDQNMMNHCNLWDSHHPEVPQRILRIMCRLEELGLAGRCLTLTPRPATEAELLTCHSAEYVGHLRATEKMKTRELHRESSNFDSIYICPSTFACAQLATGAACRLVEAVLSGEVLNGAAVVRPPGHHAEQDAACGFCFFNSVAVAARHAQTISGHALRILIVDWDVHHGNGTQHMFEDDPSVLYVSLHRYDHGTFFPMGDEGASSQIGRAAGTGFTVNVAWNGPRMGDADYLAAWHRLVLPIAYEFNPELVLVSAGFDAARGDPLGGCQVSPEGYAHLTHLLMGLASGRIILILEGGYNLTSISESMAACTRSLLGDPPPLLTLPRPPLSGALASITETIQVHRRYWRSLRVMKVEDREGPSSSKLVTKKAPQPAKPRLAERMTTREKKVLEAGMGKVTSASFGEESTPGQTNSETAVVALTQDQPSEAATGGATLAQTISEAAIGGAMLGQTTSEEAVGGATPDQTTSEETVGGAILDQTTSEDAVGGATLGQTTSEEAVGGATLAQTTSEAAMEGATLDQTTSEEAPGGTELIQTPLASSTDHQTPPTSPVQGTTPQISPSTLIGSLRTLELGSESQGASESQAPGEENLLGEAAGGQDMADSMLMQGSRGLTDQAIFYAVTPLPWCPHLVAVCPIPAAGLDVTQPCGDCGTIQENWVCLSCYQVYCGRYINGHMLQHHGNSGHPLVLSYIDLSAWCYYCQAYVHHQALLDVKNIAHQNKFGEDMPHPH
In short: (§1)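 Five-fold compound dilutions incubated with […] recombinant enzyme and 10 μM fluorogenic Fluor de Lys substrate, 60 min at 30° C. Fluor de Lys Developer II then added for 30 min to generate the fluorescent read-out.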

human recombinant HDAC1 = biological target: T2, human recombinant HDAC1 (Homo sapiens, UniProt Q13547); assay: HDAC1 enzyme activity inhibition (HDAC Fluorimetric Drug Discovery Kit); format: biochemical; conditions: read-out: HDAC1
T2 construct: purchased Enzo Life Science, Inc. BML-SE456
In short: as §1

[1] = human recombinant HDAC6, IC50 calculated with GraphPad Prism
[2] = human recombinant HDAC1, IC50 calculated with GraphPad Prism
[3] = human recombinant HDAC6, same protocol as HDAC1
[4] = human recombinant HDAC1, Fluor de Lys substrate, 30° C. 60 minutes

T2 sequence (Q13547 whole entry): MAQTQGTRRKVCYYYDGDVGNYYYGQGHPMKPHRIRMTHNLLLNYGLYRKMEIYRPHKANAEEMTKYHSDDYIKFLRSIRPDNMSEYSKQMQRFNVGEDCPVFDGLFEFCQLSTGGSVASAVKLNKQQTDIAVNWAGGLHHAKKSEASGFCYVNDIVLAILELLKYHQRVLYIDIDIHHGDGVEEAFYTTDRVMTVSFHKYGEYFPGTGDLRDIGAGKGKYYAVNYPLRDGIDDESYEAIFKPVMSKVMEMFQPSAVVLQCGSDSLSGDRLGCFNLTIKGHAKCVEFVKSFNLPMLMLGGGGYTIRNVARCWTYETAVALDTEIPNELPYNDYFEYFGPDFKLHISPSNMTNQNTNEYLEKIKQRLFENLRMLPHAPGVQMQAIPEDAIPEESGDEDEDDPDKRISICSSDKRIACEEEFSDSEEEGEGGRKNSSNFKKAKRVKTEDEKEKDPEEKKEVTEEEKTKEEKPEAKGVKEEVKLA

HDAC6 selectivity (fold) (human recombinant HDAC6; HDAC1 IC50 / HDAC6 IC50)	IC50 (human recombinant HDAC6; [1])	IC50 (human recombinant HDAC1; [2])	HDAC6 selectivity (fold) (human recombinant HDAC6; HDAC6 over HDAC1)	IC50 (human recombinant HDAC6; [3])	IC50 (human recombinant HDAC1; [4])	SMILES
1506 fold	33.2 nM	> 50000 nM	–	–	–	FC(F)c1nnc(-c2ccc(Cn3cc(-c4ccc(Br)cn4)nn3)nc2)o1 [Compound 4180, 2-(6-((4-(5-bromopyridin-2-yl)-1H-1,2,3-triazol-1-yl)methyl)pyridin-3-yl)-5-(difluoromethyl)-1,3,4-oxadiazole]
–	–	–	1213 fold	41.2 nM	> 50000 nM	FC1CN(Cc2ccc(-c3cn(Cc4ccc(-c5nnc(C(F)F)o5)cc4)nn3)cc2)C1 [Compound 4549, 2-(difluoromethyl)-5-(4-((4-(4-((3-fluoroazetidin-1-yl)methyl)phenyl)-1H-1,2,3-triazol-1-yl)methyl)phenyl)-1,3,4-oxadiazole]
1655 fold	30.2 nM	> 50000 nM	–	–	–	O=C(c1cccc(-c2cn(Cc3ccc(-c4nnc(C(F)F)o4)cn3)nn2)c1)N1CCCC1 [Compound 3829, (3-(1-((5-(5-(difluoromethyl)-1,3,4-oxadiazol-2-yl)pyridin-2-yl)methyl)-1H-1,2,3-triazol-4-yl)phenyl)(pyrrolidin-1-yl)methanone]
203 fold	246 nM	> 50000 nM	–	–	–	Fc1cc(-c2nnc(C(F)F)o2)ccc1Cn1cc(C2(F)CCOC2)nn1 (stereo not drawn) [Compound 4283, 2-(difluoromethyl)-5-(3-fluoro-4-((4-(3-fluorotetrahydrofuran-3-yl)-1H-1,2,3-triazol-1-yl)methyl)phenyl)-1,3,4-oxadiazole]
433 fold	115 nM	> 50000 nM	–	–	–	CN(C)Cc1c(-c2ccccc2)nnn1Cc1ccc(-c2nnc(C(F)F)o2)cc1F [Compound 4491, 1-(1-(4-(5-(difluoromethyl)-1,3,4-oxadiazol-2-yl)-2-fluorobenzyl)-4-phenyl-1H-1,2,3-triazol-5-yl)-N,N-dimethylmethanamine]
1754 fold	28.5 nM	> 50000 nM	–	–	–	CC(C)(C)OC(=O)Nc1cccc(-c2cn(Cc3ccc(-c4nnc(C(F)F)o4)cn3)nn2)c1 [Compound 3741, Tert-butyl (3-(1-((5-(5-(difluoromethyl)-1,3,4-oxadiazol-2-yl)pyridin-2-yl)methyl)-1H-1,2,3-triazol-4-yl)phenyl)carbamate]
632 fold	79.1 nM	> 50000 nM	–	–	–	Fc1ccc(N2CCN(C3CCC3)CC2)cc1-c1cn(Cc2ccc(-c3nnc(C(F)F)o3)cc2)nn1 [Compound 4454, 2-(4-((4-(5-(4-cyclobutylpiperazin-1-yl)-2-fluorophenyl)-1H-1,2,3-triazol-1-yl)methyl)phenyl)-5-(difluoromethyl)-1,3,4-oxadiazol]
268 fold	186 nM	> 50000 nM	–	–	–	Fc1cc(-c2nnc(C(F)F)o2)ccc1Cn1cc(-c2cccc(NC3CCCCC3)c2)nn1 [Compound 4330, N-cyclohexyl-3-(1-(4-(5-(difluoromethyl)-1,3,4-oxadiazol-2-yl)-2-fluorobenzyl)-1H-1,2,3-triazol-4-yl)aniline]
1190 fold	42 nM	> 50000 nM	–	–	–	CN(C)CCN(C)Cc1cccc(-c2cn(Cc3ccc(-c4nnc(C(F)F)o4)cn3)nn2)c1 [Compound 3918, N1-(3-(1-((5-(5-(difluoromethyl)-1,3,4-oxadiazol-2-yl)pyridin-2-yl)methyl)-1H-1,2,3-triazol-4-yl)benzyl)-N1,N2,N2-trimethylethane-1,2-diamine]

The next lines start with the compound.

SMILES	HDAC6 selectivity (fold) (human recombinant HDAC6; HDAC1 IC50 / HDAC6 IC50)	IC50 (human recombinant HDAC6; [1])	IC50 (human recombinant HDAC1; [2])	HDAC6 selectivity (fold) (human recombinant HDAC6; HDAC6 over HDAC1)	IC50 (human recombinant HDAC6; [3])	IC50 (human recombinant HDAC1; [4])
Fc1cc(-c2nnc(C(F)F)o2)ccc1Cn1cc(-c2ccc3c(c2)CCN(C2COC2)C3)nn1 [Compound 4362, 2-(difluoromethyl)-5-(3-fluoro-4-((4-(2-(oxetan-3-yl)-1,2,3,4-tetrahydroisoquinolin-6-yl)-1H-1,2,3-triazol-1-yl)methyl)phenyl)-1,3,4-oxadiazole]	762 fold	65.6 nM	> 50000 nM	–	–	–
CC(C)N1CCN(c2cccc(-c3cn(Cc4ccc(-c5nnc(C(F)F)o5)cc4F)nn3)c2F)CC1 [Compound 4578]	–	–	–	1923 fold	26 nM	> 50000 nM
CCN(CC)Cc1ccc(-c2cn(Cc3ccc(-c4nnc(C(F)F)o4)cc3F)nn2)cc1 [Compound 4608, N-(4-(1-(4-(5-(difluoromethyl)-1,3,4-oxadiazol-2-yl)-2-fluorobenzyl)-1H-1,2,3-triazol-4-yl)benzyl)-N-ethylethanamine]	–	–	–	1893 fold	26.4 nM	> 50000 nM
Fc1cnccc1-c1cn(Cc2ccc(-c3nnc(C(F)F)o3)cn2)nn1 [Compound 4184, 2-(difluoromethyl)-5-(6-((4-(3-fluoropyridin-4-yl)-1H-1,2,3-triazol-1-yl)methyl)pyridin-3-yl)-1,3,4-oxadiazole]	1291 fold	38.7 nM	> 50000 nM	–	–	–
CCC(=O)N1CCN(c2cccc(-c3cn(Cc4ccc(-c5nnc(C(F)F)o5)cc4)nn3)c2)CC1 [Compound 4372, 1-(4-(3-(1-(4-(5-(difluoromethyl)-1,3,4-oxadiazol-2-yl)benzyl)-1H-1,2,3-triazol-4-yl)phenyl)piperazin-1-yl)propan-1-one]	724 fold	69 nM	> 50000 nM	–	–	–
CCN1CCc2ccc(-c3cn(Cc4ccc(-c5nnc(C(F)F)o5)cn4)nn3)cc2C1 [Compound 4211, 2-(difluoromethyl)-5-(6-((4-(2-ethyl-1,2,3,4-tetrahydroisoquinolin-7-yl)-1H-1,2,3-triazol-1-yl)methyl)pyridin-3-yl)-1,3,4-oxadiazole]	1039 fold	48.1 nM	> 50000 nM	–	–	–
Cc1csc(-c2cn(Cc3ccc(-c4nnc(C(F)F)o4)cc3F)nn2)n1 [Compound 17854, 2-(difluoromethyl)-5-(3-fluoro-4-((4-(4-methylthiazol-2-yl)-1H-1,2,3-triazol-1-yl)methyl)phenyl)-1,3,4-oxadiazole]	–	–	–	599 fold	83.4 nM	> 50000 nM
Fc1cc(-c2nnc(C(F)F)o2)ccc1Cn1cc(-c2ccc(Br)cn2)nn1 [Compound 16928, 2-(4-((4-(5-bromopyridin-2-yl)-1H-1,2,3-triazol-1-yl)methyl)-3-fluorophenyl)-5-(difluoromethyl)-1,3,4-oxadiazole]	–	–	–	586 fold	85.3 nM	> 50000 nM
O=C(Nc1cccc(-c2cn(Cc3ccc(-c4nnc(C(F)F)o4)cn3)nn2)c1)C1CN(C2COC2)C1 [Compound 4465]	2222 fold	22.5 nM	> 50000 nM	–	–	–
C[C@@H]1CN(c2cccc(-c3cn(Cc4ncc(-c5nnc(C(F)F)o5)cc4F)nn3)c2)C[C@H](C)N1C [Compound 18961, 2-(difluoromethyl)-5-(5-fluoro-6-((4-(3-((3R,5S)-3,4,5-trimethylpiperazin-1-yl)phenyl)-1H-1,2,3-triazol-1-yl)methyl)pyridin-3-yl)-1,3,4-oxadiazole]	–	–	–	782 fold	63.9 nM	> 50000 nM
CC(C)(C)OC(=O)NC(C)(C)C(=O)Nc1cccc(-c2cn(Cc3ccc(-c4nnc(C(F)F)o4)cn3)nn2)c1 [Compound 4495]	2262 fold	22.1 nM	> 50000 nM	–	–	–
FC(F)c1nnc(-c2ccc(Cn3cc(-c4ccc(-n5ccnc5)cc4)nn3)nc2)o1 [Compound 4284, 2-(6-((4-(4-(1H-imidazol-1-yl)phenyl)-1H-1,2,3-triazol-1-yl)methyl)pyridin-3-yl)-5-(difluoromethyl)-1,3,4-oxadiazole]	1915 fold	26.1 nM	> 50000 nM	–	–	–
